Data as given in patent US20050153899A1, “Therapeutical conversion” (priority 2003, published 2005).

What was measured:
GH or IGF-1 excess = conditions: primary or secondary therapy; cited from earlier work
serum IGF-I = experiment: Serum IGF-I concentration (RIA) in open-label octreotide LAR to pegvisomant conversion study; type: in vivo, human
Protocol: This open-label study included patients 18 years of age or older with a previously established diagnosis of acromegaly. […] Treatment with a dopamine agonist was discontinued 4 weeks before the baseline visit. Treatment with pegvisomant 10 mg/day subcutaneous was started at week 4 and continued through week 32. […] A more rapid dose escalation was allowed in a few patients based on the effective dose in the previous study. Vital signs and adverse events were monitored at each study visit; clinical and laboratory assessments were conducted at screening and baseline visits and regularly at 4-week intervals during the study. Laboratory assessments included serum IGF-I and GH concentrations, liver chemistry tests (alanine aminotransferase [ALT], aspartate transaminase [AST], bilirubin, and alkaline phosphatase), and routine laboratory tests (hematology, serum chemistry, and urinalysis). Assaying of serum IGF-I and GH concentrations was performed by an independent laboratory (Endocrine Sciences, Inc., Calabasas Hills, Calif.). Following separation of serum IGF-I from binding proteins by acid-ethanol extraction, serum IGF-I concentrations were determined using the IGF-I Nichols Kit (Cat. […] Serum GH concentrations were measured using a standard double antibody RIA with 125I-labeled recombinant human GH (hGH) tracer and primary rabbit anti-hGH antisera. Bound radioactive antibody-bound hGH was detected using a gamma counter. Specific radioactive hGH binding for each dilution was determined by subtracting the respective nonspecific binding, and the net radioactive hGH binding was calculated as a percentage of the total radioactive hGH added to each tube. Dilutions having a specific binding >2% were designated positive. For the primary outcome measure, exact binomial 2-sided 95% confidence intervals were constructed. All other analyses were descriptive in nature. For continuous measurements, descriptive summaries and subsequent analyses included the number of patients for which data were available, mean, median, standard deviation, and minimum/maximum values. […] The descriptive summaries for categorical or discrete measurements included the number and percentage of patients in each category. […] Secondary outcomes and safety were reported as descriptive summaries.

patients with acromegaly [1] = experiment: Safety monitoring in conversion study: adverse events, liver function tests, blood pressure, pulse, weight; type: in vivo, human
Protocol: This open-label study included patients 18 years of age or older with a previously established diagnosis of acromegaly. […] Treatment with a dopamine agonist was discontinued 4 weeks before the baseline visit. Treatment with pegvisomant 10 mg/day subcutaneous was started at week 4 and continued through week 32. […] A more rapid dose escalation was allowed in a few patients based on the effective dose in the previous study. Vital signs and adverse events were monitored at each study visit; clinical and laboratory assessments were conducted at screening and baseline visits and regularly at 4-week intervals during the study. Laboratory assessments included serum IGF-I and GH concentrations, liver chemistry tests (alanine aminotransferase [ALT], aspartate transaminase [AST], bilirubin, and alkaline phosphatase), and routine laboratory tests (hematology, serum chemistry, and urinalysis). For the primary outcome measure, exact binomial 2-sided 95% confidence intervals were constructed. All other analyses were descriptive in nature. For continuous measurements, descriptive summaries and subsequent analyses included the number of patients for which data were available, mean, median, standard deviation, and minimum/maximum values. […] The descriptive summaries for categorical or discrete measurements included the number and percentage of patients in each category. […] Secondary outcomes and safety were reported as descriptive summaries.

pituitary tumor = test system: pituitary tumor; parameters: species or system human; conditions: in vivo
Protocol: Magnetic resonance imaging of the pituitary was performed at baseline and at the end of the study. Pituitary tumor volumes were calculated from the images by a single evaluator. Ultrasound of the gallbladder was performed at baseline and week 32.

patients with acromegaly [2] = experiment: Glucose homeostasis in conversion study: HbA1c, fasting plasma glucose, insulin, OGTT; type: in vivo, human
Protocol: Glycolated hemoglobin (HbA1c), fasting plasma glucose, and insulin concentrations were used to monitor the effects of pegvisomant on glucose homeostasis. […] Patients also underwent oral glucose tolerance testing (OGTT) to determine the glucose area under the concentration-time curve (AUC) at week 4 before initiation of pegvisomant and at week 32. Plasma glucose levels were assessed at −15, 0, 30, 60, 90, 120, 150, and 180 minutes following an oral glucose load.
For the primary outcome measure, exact binomial 2-sided 95% confidence intervals were constructed. All other analyses were descriptive in nature. For continuous measurements, descriptive summaries and subsequent analyses included the number of patients for which data were available, mean, median, standard deviation, and minimum/maximum values. […] The descriptive summaries for categorical or discrete measurements included the number and percentage of patients in each category. Statistical significance defined as a P value of <0.05 was determined by: 1) McNemar's Chi-square test for liver function tests and the proportion of patients with IGF-I below upper limit of normal at during the study versus baseline, or 2) the signed rank test for all other comparisons. Secondary outcomes and safety were reported as descriptive summaries.

patients with acromegaly [3] = experiment: Signs and symptoms of acromegaly, overall health status, ring size; type: in vivo, human; conditions: after conversion from octreotide LAR
Protocol: Signs and symptoms of acromegaly and overall health status were assessed by use of questionnaire that patients completed. Disease signs and symptoms were scored using an […] (0=absent to 8=severe, incapacitating); overall health status was scored using a 10-point scale (0=worst possible to 10=best possible). Additionally, change in ring size of the fourth digit of the right hand (fifth digit if the fourth was too large) was measured using a jeweler's ring sizing system (plastic) over the course of the study.

[4] = patients with normal IGF-I at baseline (n=13)

For C[C@@H](O)[C@@H]1NC(=O)[C@H](CCCCN)NC(=O)[C@@H](Cc2c[nH]c3ccccc23)NC(=O)[C@H](Cc2ccccc2)NC(=O)[C@@H](NC(=O)[C@H](N)Cc2ccccc2)CSSC[C@@H](C(=O)N[C@H](CO)[C@@H](C)O)NC1=O [Octreotide], the “patients in whom GH or IGF-1 excess is controlled” value (GH or IGF-1 excess) is given as 50-60%.
In the case of pegvisomant, the “cumulative percentage of patients achieving at least one IGF-I concentration within normal age-related range” value (serum IGF-I; any time during the study) is reported as 85%, the “change in IGF-I concentrations” value (serum IGF-I; patients with baseline IGF-I above age-adjusted reference range) is reported as “significantly reduced” and the “change in IGF-I concentrations” value (serum IGF-I; patients with normal IGF-I levels at baseline) is reported as “not significantly changed”. The “serum IGF-I concentration” value (serum IGF-I; week 32, all patients) was 292 ng/mL, the “patients with normalized IGF-I concentrations” value (serum IGF-I; week 32, 38 of 49 patients) was 77.6% and the “clinically relevant changes in serum ALT, ASP or bilirubin in patients with normal liver function at baseline” value (patients with acromegaly [1]; in vivo) was “No patient”. The “elevations in blood pressure or pulse” value (patients with acromegaly [1]; in vivo) was “No significant or clinically relevant elevations”, the “mean diastolic blood pressure” value (patients with acromegaly [1]; in vivo) was 76 mm Hg and the “mean systolic blood pressure” value (patients with acromegaly [1]; in vivo) was 126 mm Hg. For the same molecule, the “patients reporting at least 1 adverse event” value (patients with acromegaly [1]; in vivo) was 26.4%, the “patients with abnormal liver function tests (≧3 times ULN)” value (patients with acromegaly [1]; in vivo) was “No patients had abnormal liver function tests” and the “patients with treatment-related constipation” value (patients with acromegaly [1]; in vivo) was 3.8%. The “patients with treatment-related injection-site reaction” value (patients with acromegaly [1]; in vivo) was 3.8%, the “serious treatment-related adverse events” value (patients with acromegaly [1]; in vivo) was “No serious treatment-related adverse events” and the “patients with anomalous spikes in ALT levels” value (patients with acromegaly [1]; week 20 to week 24) was 5.7%. For the same molecule, the “pituitary volume, mean change” value (pituitary tumor) was 0.06 cm3, the “pituitary volume, median change” value (pituitary tumor) was 0 cm3 and the “pituitary volume, range of change” value (pituitary tumor) was −0.73 to 1.1 cm3. The “change in median HbA1c” value (patients with acromegaly [2]; all patients, 32-week study) was “significant decrease”, the “decrease in fasting plasma glucose” value (patients with acromegaly [2]; [4]) was 1.7 mmol/L and the “decrease in median HbA1c” value (patients with acromegaly [2]; [4]) was 0.2%. The peak insulin concentration (patients with acromegaly [2]; week 12) was 90 pmol/L, the glucose AUC during 2-hour OGTT (patients with acromegaly [2]; week 32) was 1280 mmol·min/L and the insulin/glucose ratio (patients with acromegaly [2]; week 32) was 13.6. The median fasting glucose (patients with acromegaly [2]; week 32) was 4.7 mmol/L, the median insulin concentration (patients with acromegaly [2]; week 32) was 69 pmol/L and the “mean overall signs-and-symptoms scores, overall health status, measures of ring size” value (patients with acromegaly [3]) was “improved”.
